Reference: patent EP4745135A1 (Gluetacs Therapeutics (Shanghai) Co., Ltd., priority 2023, dated 2025)

Assays:
[1] = target: T1, human Cereblon WT GST-tagged protein (Homo sapiens, UniProt Q96SW2); assay: CRBN-binding affinity, HTRF (CEREBLON BINDING kit); conditions: for inhibition at 0.5 µM: read-out: Inhibition Rate at 0.5 µM (%); for inhibition at 2 µM: read-out: Inhibition Rate at 2 µM (%)
T1 construct: purchased CISBIO 64BDCRBNPEH

[2] = target: T2, IKZF2 (Homo sapiens, UniProt Q96SW2+Q9UKS7); assay: Western blot, degradation of substrate protein in hPBMCs; assay type: cell-based
T2 construct: effects of the compounds of the present disclosure on the expression of target proteins in cells; endogenous in cells; host or cells: human PBMCs (Milecell Biotechnologies)
T2 sequence (Q9UKS7 whole entry): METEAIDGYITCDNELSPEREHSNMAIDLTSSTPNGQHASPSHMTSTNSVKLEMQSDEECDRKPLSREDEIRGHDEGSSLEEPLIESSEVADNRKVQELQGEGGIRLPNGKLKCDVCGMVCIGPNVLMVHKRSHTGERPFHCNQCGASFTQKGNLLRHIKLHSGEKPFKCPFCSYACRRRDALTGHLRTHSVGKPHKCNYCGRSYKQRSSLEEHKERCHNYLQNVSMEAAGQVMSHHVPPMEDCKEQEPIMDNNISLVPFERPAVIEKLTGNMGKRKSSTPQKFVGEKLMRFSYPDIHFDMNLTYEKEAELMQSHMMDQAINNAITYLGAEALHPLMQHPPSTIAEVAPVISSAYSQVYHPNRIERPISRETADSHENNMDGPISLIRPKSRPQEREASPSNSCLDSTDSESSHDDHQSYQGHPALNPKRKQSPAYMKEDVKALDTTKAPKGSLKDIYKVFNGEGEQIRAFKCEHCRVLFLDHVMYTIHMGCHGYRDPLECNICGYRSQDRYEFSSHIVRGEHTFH
T2 sequence (Q96SW2 whole entry): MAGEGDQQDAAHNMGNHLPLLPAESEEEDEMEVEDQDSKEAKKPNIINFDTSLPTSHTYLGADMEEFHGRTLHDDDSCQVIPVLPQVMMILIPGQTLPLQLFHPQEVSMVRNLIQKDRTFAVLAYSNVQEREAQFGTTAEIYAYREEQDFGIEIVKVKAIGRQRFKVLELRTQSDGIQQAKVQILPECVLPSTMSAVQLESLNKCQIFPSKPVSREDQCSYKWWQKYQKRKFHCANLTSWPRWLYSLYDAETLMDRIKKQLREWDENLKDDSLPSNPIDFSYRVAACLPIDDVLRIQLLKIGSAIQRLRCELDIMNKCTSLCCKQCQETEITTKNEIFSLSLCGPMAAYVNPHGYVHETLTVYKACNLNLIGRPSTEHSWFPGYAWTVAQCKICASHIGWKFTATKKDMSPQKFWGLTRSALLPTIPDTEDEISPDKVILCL
T2 sequence (Q16531 whole entry partner): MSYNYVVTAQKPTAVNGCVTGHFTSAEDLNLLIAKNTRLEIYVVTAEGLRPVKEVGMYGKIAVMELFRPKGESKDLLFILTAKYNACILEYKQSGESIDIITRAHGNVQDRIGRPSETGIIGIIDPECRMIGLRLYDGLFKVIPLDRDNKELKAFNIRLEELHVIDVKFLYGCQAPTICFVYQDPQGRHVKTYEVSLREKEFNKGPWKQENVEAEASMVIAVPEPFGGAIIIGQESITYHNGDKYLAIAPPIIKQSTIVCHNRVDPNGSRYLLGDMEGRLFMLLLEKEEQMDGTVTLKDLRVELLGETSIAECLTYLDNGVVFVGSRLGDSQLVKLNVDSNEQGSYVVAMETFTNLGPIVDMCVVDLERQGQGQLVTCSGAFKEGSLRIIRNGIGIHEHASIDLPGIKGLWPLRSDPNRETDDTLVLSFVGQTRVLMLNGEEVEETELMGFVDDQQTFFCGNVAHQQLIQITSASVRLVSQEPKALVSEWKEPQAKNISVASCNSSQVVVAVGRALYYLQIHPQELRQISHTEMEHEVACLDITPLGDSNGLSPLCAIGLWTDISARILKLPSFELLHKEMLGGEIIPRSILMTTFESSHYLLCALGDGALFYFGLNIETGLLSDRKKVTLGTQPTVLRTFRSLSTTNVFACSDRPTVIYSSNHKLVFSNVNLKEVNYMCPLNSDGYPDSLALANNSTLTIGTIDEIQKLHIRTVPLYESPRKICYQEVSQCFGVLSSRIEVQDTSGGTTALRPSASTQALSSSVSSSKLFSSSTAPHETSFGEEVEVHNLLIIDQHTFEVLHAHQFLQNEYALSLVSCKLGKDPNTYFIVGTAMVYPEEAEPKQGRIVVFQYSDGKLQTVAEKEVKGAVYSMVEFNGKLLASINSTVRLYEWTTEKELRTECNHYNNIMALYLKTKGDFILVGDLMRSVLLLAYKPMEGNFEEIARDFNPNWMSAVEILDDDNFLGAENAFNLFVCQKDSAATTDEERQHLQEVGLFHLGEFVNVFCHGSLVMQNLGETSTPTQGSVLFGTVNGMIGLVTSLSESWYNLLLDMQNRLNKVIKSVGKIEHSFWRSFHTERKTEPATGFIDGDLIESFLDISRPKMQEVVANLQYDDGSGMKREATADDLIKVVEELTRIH

[3] = target: T3, IKZF1 (Homo sapiens, UniProt Q13422+Q96SW2); assay: as above; assay type: cell-based
T3 construct: effects of the compounds of the present disclosure on the expression of target proteins in cells; endogenous in cells; host or cells: human PBMCs (Milecell Biotechnologies)
T3 sequence (Q13422 whole entry): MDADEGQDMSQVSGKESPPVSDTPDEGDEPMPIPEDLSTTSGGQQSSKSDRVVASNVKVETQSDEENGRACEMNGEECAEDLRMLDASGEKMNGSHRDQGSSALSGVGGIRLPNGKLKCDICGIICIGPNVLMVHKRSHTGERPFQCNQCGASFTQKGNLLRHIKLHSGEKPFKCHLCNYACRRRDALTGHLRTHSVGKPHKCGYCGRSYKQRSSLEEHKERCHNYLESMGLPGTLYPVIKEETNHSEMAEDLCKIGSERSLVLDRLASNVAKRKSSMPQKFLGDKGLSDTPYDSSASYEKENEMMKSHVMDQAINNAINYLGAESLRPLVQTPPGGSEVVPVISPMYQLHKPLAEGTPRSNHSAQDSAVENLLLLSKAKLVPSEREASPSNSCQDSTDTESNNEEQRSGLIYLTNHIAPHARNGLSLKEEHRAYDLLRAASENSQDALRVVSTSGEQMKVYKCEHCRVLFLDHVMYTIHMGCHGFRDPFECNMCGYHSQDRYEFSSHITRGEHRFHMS
T3 sequence (Q96SW2 whole entry): as the sequence (Q96SW2 whole entry) above
T3 sequence (Q16531 whole entry partner): as the sequence (Q16531 whole entry partner) above

[4] = target: T4, WEE1 (Homo sapiens, UniProt P30291+Q96SW2); assay: as above; assay type: cell-based
T4 construct: effects of the compounds of the present disclosure on the expression of target proteins in cells; endogenous in cells; host or cells: human PBMCs (Milecell Biotechnologies)
T4 sequence (P30291 whole entry): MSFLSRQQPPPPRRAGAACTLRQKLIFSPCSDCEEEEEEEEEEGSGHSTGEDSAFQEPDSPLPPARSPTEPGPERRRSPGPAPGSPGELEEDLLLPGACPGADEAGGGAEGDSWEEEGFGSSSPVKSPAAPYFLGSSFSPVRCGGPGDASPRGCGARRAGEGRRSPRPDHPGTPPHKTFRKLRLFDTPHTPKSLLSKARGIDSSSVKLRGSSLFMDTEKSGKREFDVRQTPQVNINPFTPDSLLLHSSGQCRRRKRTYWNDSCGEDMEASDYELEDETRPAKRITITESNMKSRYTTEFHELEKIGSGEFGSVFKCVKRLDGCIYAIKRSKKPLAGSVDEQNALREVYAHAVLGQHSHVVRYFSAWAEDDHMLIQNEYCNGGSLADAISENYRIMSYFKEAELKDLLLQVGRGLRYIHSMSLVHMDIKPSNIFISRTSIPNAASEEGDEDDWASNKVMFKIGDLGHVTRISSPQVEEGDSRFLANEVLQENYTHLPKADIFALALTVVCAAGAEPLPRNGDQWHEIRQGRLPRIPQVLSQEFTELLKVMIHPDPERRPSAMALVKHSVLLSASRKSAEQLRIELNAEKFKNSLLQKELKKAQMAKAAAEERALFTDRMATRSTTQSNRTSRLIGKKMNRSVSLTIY
T4 sequence (Q96SW2 whole entry): as the sequence (Q96SW2 whole entry) above
T4 sequence (Q16531 whole entry partner): as the sequence (Q16531 whole entry partner) above

[5] = target: T5, CK1α (Homo sapiens, UniProt P48729+Q96SW2); assay: as above; assay type: cell-based
T5 construct: effects of the compounds of the present disclosure on the expression of target proteins in cells; endogenous in cells; host or cells: human PBMCs (Milecell Biotechnologies)
T5 sequence (P48729 whole entry): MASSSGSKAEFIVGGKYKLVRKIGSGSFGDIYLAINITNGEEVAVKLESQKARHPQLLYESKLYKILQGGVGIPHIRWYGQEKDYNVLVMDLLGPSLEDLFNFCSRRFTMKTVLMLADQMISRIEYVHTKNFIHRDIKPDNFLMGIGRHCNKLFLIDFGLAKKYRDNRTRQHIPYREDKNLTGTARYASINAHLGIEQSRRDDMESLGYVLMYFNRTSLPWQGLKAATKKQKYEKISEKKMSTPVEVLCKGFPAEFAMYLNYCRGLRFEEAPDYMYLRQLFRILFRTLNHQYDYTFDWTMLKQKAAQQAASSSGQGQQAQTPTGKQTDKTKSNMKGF
T5 sequence (Q96SW2 whole entry): as the sequence (Q96SW2 whole entry) above
T5 sequence (Q16531 whole entry partner): as the sequence (Q16531 whole entry partner) above

[6] = target: T6, IKZF3 (Homo sapiens, UniProt Q96SW2+Q9UKT9); assay: as above; assay type: cell-based
T6 construct: effects of the compounds of the present disclosure on the expression of target proteins in cells; endogenous in cells; host or cells: human PBMCs (Milecell Biotechnologies)
T6 sequence (Q9UKT9 whole entry): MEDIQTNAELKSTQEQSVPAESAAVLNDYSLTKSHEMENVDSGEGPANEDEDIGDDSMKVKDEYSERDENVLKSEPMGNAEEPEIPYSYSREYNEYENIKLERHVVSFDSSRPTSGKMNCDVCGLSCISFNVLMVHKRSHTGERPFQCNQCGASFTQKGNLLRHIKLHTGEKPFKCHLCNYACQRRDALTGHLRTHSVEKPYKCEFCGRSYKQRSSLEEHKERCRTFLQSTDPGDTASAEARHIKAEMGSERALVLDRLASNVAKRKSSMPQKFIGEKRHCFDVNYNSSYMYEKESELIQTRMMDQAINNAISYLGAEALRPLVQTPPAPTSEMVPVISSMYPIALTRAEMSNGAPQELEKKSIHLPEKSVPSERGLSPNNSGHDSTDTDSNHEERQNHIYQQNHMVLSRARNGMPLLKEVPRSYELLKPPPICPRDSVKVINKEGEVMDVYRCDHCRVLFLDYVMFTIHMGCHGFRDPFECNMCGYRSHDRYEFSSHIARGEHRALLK
T6 sequence (Q96SW2 whole entry): as the sequence (Q96SW2 whole entry) above
T6 sequence (Q16531 whole entry partner): as the sequence (Q16531 whole entry partner) above

[7] = tested on: GSPT1; assay: as above; assay type: cell-based, Human
[8] = 24 hours treatment, compounds at 50 nM and 500 nM (concentration behind the class not stated)
[9] = Western blot, 24 hours of compound treatment, compounds tested at 50 nM and 500 nM (concentration for the table not stated)

T1 sequence (Q96SW2 whole entry): as the sequence (Q96SW2 whole entry) above

| Structure (SMILES) | inhibition at 0.5 µM [1] [%] | inhibition at 2 µM [1] [%] | IKZF2 substrate protein remaining % [2, 8] | IKZF 1 substrate protein remaining % [3, 8] | Wee1 substrate protein remaining % [4, 8] | CK1α substrate protein remaining % [5, 8] | IKZF3 substrate protein remaining % [6, 8] | GSPT1 substrate protein remaining % [7, 8] | IKZF2 substrate protein remaining % [2, 9] | IKZF 1 substrate protein remaining % [3, 9] | Wee1 substrate protein remaining % [4, 9] | CK1α substrate protein remaining % [5, 9] | IKZF3 substrate protein remaining % [6, 9] | GSPT1 substrate protein remaining % [7, 9] | IC50 ([1]; CRBN binding, HTRF, 3 hours at room temperature, read-out: HTRF IC50) [nM] |
| --- | --- | --- | --- | --- | --- | --- | --- | --- | --- | --- | --- | --- | --- | --- | --- |
| O=C1CCC(N2Cc3cc(CN4CCN(c5nc(Cl)nc6c5SCC6)CC4)ccc3C2=S)C(=O)N1 (centres unmarked) [GT-09328, 3-(5-((4-(2-chloro-6,7-dihydrothieno[3,2-d]pyrimidin-4-yl)piperazin-1-yl)methyl)-1-thioxoisoindolin-2-yl)piperidine-2,6-dione] | 53 to 60 | 80 to 100 | A (0% ≤ substrate protein remaining % ≤ 80%) | B (80%< substrate protein remaining %≤ 100%) | B (80%< substrate protein remaining %≤ 100%) | B (80%< substrate protein remaining %≤ 100%) | B (80%< substrate protein remaining %≤ 100%) | B (80%< substrate protein remaining %≤ 100%) | – | – | – | – | – | – | – |
| O=C1CCC(N2Cc3c(CN4CCN(c5ccnc(Cl)c5Br)CC4)cccc3C2=S)C(=O)N1 (centres unmarked) [GT-08734, 3-(4-((4-(3-bromo-2-chloropyridin-4-yl)piperazin-1-yl)methyl)-1-thioxoisoindolin-2-yl)piperidine-2,6-dione] | 60 to 80 | 80 to 100 | – | – | – | – | – | – | B (80%< substrate protein remaining %≤ 100%) | B (80%< substrate protein remaining %≤ 100%) | A (0% ≤ substrate protein remaining % ≤ 80%) | B (80%< substrate protein remaining %≤ 100%) | B (80%< substrate protein remaining %≤ 100%) | A (0% ≤ substrate protein remaining % ≤ 80%) | – |
| O=C1CCC(N2Cc3cc(CN4CCN(c5cc(F)cc(F)c5)CC4)ccc3C2=S)C(=O)N1 (centres unmarked) [GT-08628, 3-(5-((4-(3,5-difluorophenyl)piperazin-1-yl)methyl)-1-thioxoisoindolin-2-yl)piperidine-2,6-dione] | 53 to 60 | 80 to 100 | – | – | – | – | – | – | B (80%< substrate protein remaining %≤ 100%) | B (80%< substrate protein remaining %≤ 100%) | B (80%< substrate protein remaining %≤ 100%) | B (80%< substrate protein remaining %≤ 100%) | B (80%< substrate protein remaining %≤ 100%) | A (0% ≤ substrate protein remaining % ≤ 80%) | – |
| O=C1CCC(N2Cc3cc(CN4CCN(c5ncc(C(F)(F)F)cc5Cl)CC4)ccc3C2=S)C(=O)N1 (centres unmarked) [GT-09228, 3-(5-((4-(3-chloro-5-(trifluoromethyl)pyridin-2-yl)piperazin-1-yl)methyl)-1-thioxoisoindolin-2-yl)piperidine-2,6-dione] | 40 to 53 | 80 to 100 | – | – | – | – | – | – | B (80%< substrate protein remaining %≤ 100%) | B (80%< substrate protein remaining %≤ 100%) | B (80%< substrate protein remaining %≤ 100%) | A (0% ≤ substrate protein remaining % ≤ 80%) | B (80%< substrate protein remaining %≤ 100%) | B (80%< substrate protein remaining %≤ 100%) | – |
| O=C1CCC(N2Cc3cc(CN4CC=C(c5cccc6cnccc56)CC4)ccc3C2=S)C(=O)N1 (centres unmarked) [GT-05246, 3-(5-((4-(isoquinolin-5-yl)-3,6-dihydropyridin-1(2H)-yl)methyl)-1-thioxoisoindolin-2-yl)piperidine-2,6-dione] | – | – | – | – | – | – | – | – | B (80%< substrate protein remaining %≤ 100%) | B (80%< substrate protein remaining %≤ 100%) | A (0% ≤ substrate protein remaining % ≤ 80%) | B (80%< substrate protein remaining %≤ 100%) | B (80%< substrate protein remaining %≤ 100%) | A (0% ≤ substrate protein remaining % ≤ 80%) | 100 to 500 |
| Cc1nc(C2CCN(Cc3cccc4c3CN(C3CCC(=O)NC3=O)C4=S)CC2)c2c3c(sc2n1)CCC3 (centres unmarked) [GT-08935, 3-(4-((4-(2-methyl-6,7-dihydro-5H-cyclopenta[4,5]thieno[2,3-d]pyrimidin-4-yl)piperidin-1-yl)methyl)-1-thioxoisoindolin-2-yl)piperidine-2,6-dione] | 60 to 80 | 80 to 100 | B (80%< substrate protein remaining %≤ 100%) | A (0% ≤ substrate protein remaining % ≤ 80%) | A (0% ≤ substrate protein remaining % ≤ 80%) | B (80%< substrate protein remaining %≤ 100%) | A (0% ≤ substrate protein remaining % ≤ 80%) | A (0% ≤ substrate protein remaining % ≤ 80%) | – | – | – | – | – | – | – |
| O=C1CCC(N2Cc3c(CN4CCN(c5ccccc5)CC4)cccc3C2=S)C(=O)N1 (centres unmarked) [GT-08259, 3-(4-((4-phenylpiperazin-1-yl)methyl)-1-thioxoisoindolin-2-yl)piperidine-2,6-dione] | 40 to 53 | 60 to 80 | – | – | – | – | – | – | B (80%< substrate protein remaining %≤ 100%) | B (80%< substrate protein remaining %≤ 100%) | A (0% ≤ substrate protein remaining % ≤ 80%) | B (80%< substrate protein remaining %≤ 100%) | B (80%< substrate protein remaining %≤ 100%) | A (0% ≤ substrate protein remaining % ≤ 80%) | – |
| O=C1CCC(N2Cc3c(CN4CCN(c5nsc6ccccc56)CC4)cccc3C2=S)C(=O)N1 (centres unmarked) [GT-08366, 3-(4-((4-(benzo[d]isothiazol-3-yl)piperazin-1-yl)methyl)-1-thioxoisoindolin-2-yl)piperidine-2,6-dione] | 60 to 80 | 80 to 100 | – | – | – | – | – | – | B (80%< substrate protein remaining %≤ 100%) | B (80%< substrate protein remaining %≤ 100%) | A (0% ≤ substrate protein remaining % ≤ 80%) | B (80%< substrate protein remaining %≤ 100%) | B (80%< substrate protein remaining %≤ 100%) | B (80%< substrate protein remaining %≤ 100%) | – |
| O=C1CCC(N2Cc3c(CN4CC=C(c5ncnc6scc(-c7ccccc7)c56)CC4)cccc3C2=S)C(=O)N1 (centres unmarked) [GT-08957, 3-(4-((4-(5-phenylthieno[2,3-d]pyrimidin-4-yl)-3,6-dihydropyridin-1(2H)-yl)methyl)-1-thioxoisoindolin-2-yl)piperidine-2,6-dione] | 60 to 80 | 80 to 100 | B (80%< substrate protein remaining %≤ 100%) | B (80%< substrate protein remaining %≤ 100%) | A (0% ≤ substrate protein remaining % ≤ 80%) | B (80%< substrate protein remaining %≤ 100%) | B (80%< substrate protein remaining %≤ 100%) | B (80%< substrate protein remaining %≤ 100%) | – | – | – | – | – | – | – |
| O=C1CCC(N2Cc3c(CN4CCC(c5ccnc(F)c5F)CC4)cccc3C2=S)C(=O)N1 (centres unmarked) [GT-08459, 3-(4-((4-(2,3-difluoropyridin-4-yl)piperidin-1-yl)methyl)-1-thioxoisoindolin-2-yl)piperidine-2,6-dione] | 60 to 80 | 80 to 100 | – | – | – | – | – | – | B (80%< substrate protein remaining %≤ 100%) | B (80%< substrate protein remaining %≤ 100%) | A (0% ≤ substrate protein remaining % ≤ 80%) | B (80%< substrate protein remaining %≤ 100%) | B (80%< substrate protein remaining %≤ 100%) | B (80%< substrate protein remaining %≤ 100%) | – |
| O=C1CCC(N2Cc3cc(CN4CCN(c5c(F)cccc5F)CC4)ccc3C2=S)C(=O)N1 (centres unmarked) [GT-08626, 3-(5-((4-(2,6-difluorophenyl)piperazin-1-yl)methyl)-1-thioxoisoindolin-2-yl)piperidine-2,6-dione] | 60 to 80 | 80 to 100 | – | – | – | – | – | – | B (80%< substrate protein remaining %≤ 100%) | B (80%< substrate protein remaining %≤ 100%) | B (80%< substrate protein remaining %≤ 100%) | B (80%< substrate protein remaining %≤ 100%) | B (80%< substrate protein remaining %≤ 100%) | A (0% ≤ substrate protein remaining % ≤ 80%) | – |
| O=C1CCC(N2Cc3c(CN4CCC(c5ccnc6cc(F)ccc56)CC4)cccc3C2=S)C(=O)N1 (centres unmarked) [GT-08858, 3-(4-((4-(7-fluoroquinolin-4-yl)piperidin-1-yl)methyl)-1-thioxoisoindolin-2-yl)piperidine-2,6-dione] | 60 to 80 | 80 to 100 | B (80%< substrate protein remaining %≤ 100%) | B (80%< substrate protein remaining %≤ 100%) | A (0% ≤ substrate protein remaining % ≤ 80%) | B (80%< substrate protein remaining %≤ 100%) | B (80%< substrate protein remaining %≤ 100%) | B (80%< substrate protein remaining %≤ 100%) | – | – | – | – | – | – | – |
